From paper PMC9822168, “The Use of Flavylium Salts as Dynamic Inhibitor Moieties for Human Cb5R” (Molecules, 2022)
Like-named read-outs stand apart in the source and are kept apart here.

Legend:
Cb5R from microsomes = molecular target: T1, Cb5R from microsomes (Rattus norvegicus, UniProt P20070); test: NADH-dependent superoxide anion production (NADH: NBT reductase activity sensitive to SOD and CAT) of microsomes; type: biochemical; conditions: microsomes 5.2 µg/mL, without compound 2.3 ± 0.1; for Superoxide anion production of microsomes in presence of compound, NE form: non-equilibrated
T1 construct: testing the action of compounds 1 and 5 against the Cb5R present in rat liver microsomes; from tissue; host or cells: rat liver microsomes
T1 sequence (P20070 1-301): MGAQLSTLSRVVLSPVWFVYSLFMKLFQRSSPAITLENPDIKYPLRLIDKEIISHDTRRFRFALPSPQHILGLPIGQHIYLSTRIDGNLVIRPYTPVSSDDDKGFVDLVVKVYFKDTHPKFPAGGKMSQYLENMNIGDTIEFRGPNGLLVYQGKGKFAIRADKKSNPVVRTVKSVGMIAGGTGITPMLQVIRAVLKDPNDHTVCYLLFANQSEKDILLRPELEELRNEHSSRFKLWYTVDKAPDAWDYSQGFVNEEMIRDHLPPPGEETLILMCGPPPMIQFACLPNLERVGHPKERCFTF
Method: Finally, we measured the effect of compounds 1 and 5 on the previously described NADH-dependent superoxide anion production of the Cb5R by quantifying the inhibitory effect of the compounds on the NADH: nitro blue tetrazolium (NBT) reductase activity of Cb5R from microsomes sensitive to superoxide dismutase (SOD) and catalase (CAT) (Figure 6c). The NADH: NBT reductase activity of Cb5R measured with microsomes (5.2 µg/mL) was 4.4 ± 0.1 µM/min.

[1] = molecular target: T2, Cb5R in rat liver microsomes (Rattus norvegicus, UniProt P20070); test: NADH: ferricyanide reductase activity in rat liver microsomes; type: biochemical; conditions: for inhibition at 40 µM: 40 µM compound; for IC50: microsomes 5.6 µg/mL of protein; for Maximum inhibition of NADH: ferricyanide reductase activity in microsomes, E form / Maximum inhibition of NADH: ferricyanide reductase activity in microsomes, NE form: up to 100 µM compound
T2 construct: testing the action of compounds 1 and 5 against the Cb5R present in rat liver microsomes; from tissue; host or cells: rat liver microsomes
T2 sequence (P20070 1-301): T1 sequence (P20070 1-301)
Method: To further assess the biological relevance of the tested compounds as inhibitors of the Cb5R, we measure the inhibition dependence of the NADH: ferricyanide reductase activity in rat liver microsomes (Figure 6a). All tested compounds follow a dose-dependent effect on this activity, although the maximum inhibition achieved for them was not the same as measured with the purified recombinant enzyme.
(§1) Livers were obtained from add livitum rats. Microsomes were prepared as previously performed, with slight differences. […] Buffer (3 mL) was used per gram of liver tissue. After homogenization, the lysate was centrifuged at 960× g for 10 min at 4 °C. The supernatant was collected and centrifuged at 9800× g for 20 min at 4 °C. Finally, the supernatant was centrifuged at 53170× g for 60 min at 4 °C. The microsomal sediment was resuspended in the same buffer and frizzed at −80 °C until use.

[2] = UV-vis spectra of species interconversion in phosphate buffer pH 7.0; type: physicochemical; conditions: 24 h in phosphate buffer pH 7.0, relative to value after 2 min incubation
Method: The stock solutions of the flavylium compounds were prepared in dimethyl sulfoxide (DMSO): H2O (99:1) containing 0.1M of HCl. To estimate the predominant species of the used compounds (Figure 1), 10 µL of stock solution of each compound was added to potassium phosphate buffer at pH 7.0. The UV-vis spectra were recorded immediately (Figure S1, black lines) and after 2 min (red lines). […] The spectral signatures, i.e., the observation of absorption bands in the visible and UV-vis regions, pointed out the existence of the quinoidal base and colorless hemiketal/chalcone species mixtures under non-equilibrated conditions.
Stock solutions of compounds at acid pH values (non-equilibrated (NE) in the media) and by incubation in phosphate buffer at pH 7.0 for 24 h were prepared, and their UV-vis was measured in phosphate buffer pH 7.0. As expected, the mole fraction of the quinoidal base of compounds 1 and 5 partially disappeared, leading to the formation of the respective trans-chalcone species after a 24 h incubation in phosphate buffer at pH 7.0 (Supplementary Figure S2). We monitored the spectra of compounds 1 and 5 (black and grey line, respectively) after immediate addition into phosphate buffer pH 7.0 (continuous line) or after incubation in this buffer for 24 h (dotted line). […]

[3] = molecular target: T2, Cb5R in rat liver microsomes; test: NADH: Cb5 reductase activity of rat liver microsomes; type: biochemical; conditions: 40 µM compound, Cb5 5 μM, NADH 150 μM
Method: We measured the inhibition of the NADH: Cb5 reductase activity with a fixed concentration of the compounds (Figure 6b) and compared the values with those of the NADH: ferricyanide reductase activity in microsomes (Figure 6a).
as §1

[4] = test system: NADH: ferricytochrome b5 reductase; parameters: method as in PMID 22542668; conditions: cited from earlier work; for IC50: read-out: IC50 against NADH: ferricytochrome b5 reductase
[5] = equilibrated, read-out: Inhibition of NADH: ferricyanide reductase activity of microsomes, E form
[6] = non-equilibrated, read-out: Inhibition of NADH: ferricyanide reductase activity of microsomes, NE form
[7] = equilibrated, read-out: IC50, NADH: ferricyanide reductase activity of microsomes, E form
[8] = equilibrated, read-out: Inhibition of NADH: Cb5 reductase activity of microsomes, E form
[9] = non-equilibrated, read-out: Inhibition of NADH: Cb5 reductase activity of microsomes, NE form

**Q.** What does the source list for Oc1ccc(-c2ccc3ccc(O)cc3[o+]2)cc1 [Compound 1]?
**A.** Superoxide anion production of microsomes in presence of compound, E form (Cb5R from microsomes; equilibrated): 1.4 ± 0.1 µM/min; Superoxide anion production of microsomes in presence of compound, NE form (Cb5R from microsomes): 1.7 ± 0.1 µM/min; inhibition at 40 µM [1, 5]: 63.4 ± 3.6%; inhibition at 40 µM [1, 6]: 4.6 ± 4%; IC50 [1, 7]: 18 ± 3.8 µM; Maximum inhibition of NADH: ferricyanide reductase activity in microsomes, E form ([1]; equilibrated): 85 ±2%; Maximum inhibition of NADH: ferricyanide reductase activity in microsomes, NE form ([1]; non-equilibrated): 11 ±7%; Quinoidal base disappeared, forming the trans-chalcone [2]: ca. 40%; inhibition at 40 µM [3, 8]: 58.8 ± 1.5%; inhibition at 40 µM [3, 9]: 25 ± 5.3%

**Q.** With Oc1ccc2ccc(-c3ccc(O)c(O)c3)[o+]c2c1 [Compound 5] as the molecule, how does the “Superoxide anion production of microsomes in presence of compound, NE form” value (Cb5R from microsomes) read?
**A.** The value was 1.4 ± 0.1 µM/min.

**Q.** What about the inhibition at 40 µM [1, 5] of the same molecule?
**A.** The inhibition at 40 µM was 81.8 ± 2.3%.

**Q.** And the inhibition at 40 µM [1, 6]?
**A.** The inhibition at 40 µM was 71 ± 4.7%.

**Q.** And the IC50 [1, 7]?
**A.** Its IC50 is 3.3 ± 0.4 µM.

**Q.** And the IC50 ([1]; non-equilibrated, read-out: IC50, NADH: ferricyanide reductase activity of microsomes, NE form)?
**A.** The IC50 was 8 ± 2.2 µM.

**Q.** What about the “Maximum inhibition of NADH: ferricyanide reductase activity in microsomes, E form” value ([1]; equilibrated) of the same molecule?
**A.** Its value is 81 ± 2%.

**Q.** What about the “Maximum inhibition of NADH: ferricyanide reductase activity in microsomes, NE form” value ([1]; non-equilibrated) of the same molecule?
**A.** The value was 77 ± 2%.

**Q.** And the “Quinoidal base disappeared, forming the trans-chalcone” value [2]?
**A.** The value was “ca. 40%”.

**Q.** And the inhibition at 40 µM [3, 8]?
**A.** The inhibition at 40 µM was 80.6 ± 0.8%.

**Q.** What about the inhibition at 40 µM [3, 9] of the same molecule?
**A.** The inhibition at 40 µM was 65.6 ± 2.9%.

**Q.** Which “Inhibition of Cb5R in vitro” value ([4]; in vitro studies) does the source give for O=C1C[C@@H](c2ccc(O)cc2)Oc2cc(O)cc(O)c21 [Naringenin] here?
**A.** Its value is “did not inhibit”.

**Q.** With O=c1cc(-c2ccc(O)cc2)oc2cc(O)cc(O)c12 [apigenin] as the molecule, how does the IC50 [4] read?
**A.** Its IC50 is 36 µM.

**Q.** For Oc1cc(O)c2c(c1)O[C@H](c1ccc(O)c(O)c1)[C@@H](O)C2 [catechin], which IC50 [4] is on record?
**A.** Its IC50 is 4.5 µM.

**Q.** For Oc1cc(O)c2c(c1)O[C@H](c1ccc(O)c(O)c1)[C@H](O)C2 [epicatechin], which IC50 [4] is on record?
**A.** The IC50 was 3.2 µM.

**Q.** For O=c1cc(-c2ccc(O)c(O)c2)oc2cc(O)cc(O)c12 [luteolin], which IC50 [4] is on record?
**A.** Its IC50 is 0.11 µM.

**Q.** For O=c1c(O)c(-c2ccc(O)c(O)c2)oc2cc(O)cc(O)c12 [quercetin], which IC50 [4] is on record?
**A.** Its IC50 is 1.1 µM.
